Test results: patent US10112944B2, “Heterocyclic compounds useful as inhibitors of TNF” (BRISTOL-MYERS SQUIBB COMPANY, priority 2015, dated 2018)

Target: TNFα (Homo sapiens (Human), UniProt P01375)
Assay: TNF induced HEK-Blue assay
Type: cell-based
Details: HEK-Blue-CD40L cells, TNFα 0.5 ng/ml, NF-κB-driven secreted alkaline phosphatase reporter, 18 h
Procedure: TNF or CD40L-Induced HEK-Blue Assay
Test compounds serially diluted in DMSO were plated in an assay plate (Labcyte, Cat. #LP-0200) at final concentrations ranging from 0.004 μM to 25 μM. TNFα (final concentration 0.5 ng/ml) or CD40L (final concentration 30 ng/ml) in assay buffer [DMEM, 4.5 g/l glucose (Gibco, Cat. 21063-029), 10% FBS (Sigma, F4135), 1% Penicillin-Streptomycin (Gibco, Cat. 15140-122), 1% Anti-Anti (Gibco, Cat. 15240-112) and 2 mM L-glutamine (Gibco, Cat. 25030-081)] was then added to the assay plate. After a 30 minute pre-incubation at 37° C. and 5% CO2, HEK-Blue-CD40L cells (InvivoGen, Cat. Code hkb-cd40) containing a NF-κB-driven secreted alkaline phosphatase reporter gene were seeded into the assay plate at a density of 20,000 cells per well. This plate was then incubated for 18 h at 37° C. and 5% CO2. Secreted alkaline phosphatase expression was measured using QUANTI-Blue (InvivoGen, Cat. Code rep-qbl) according to manufacturer's specifications and the assay plate was read on a PerkinElmer Envision at 620 nm.
Inhibition data for the test compound over a range of concentrations was plotted as percentage inhibition of the test compound (100%=maximum inhibition). IC50 values were determined after correcting for background [(sample read−mean of low control)/(mean of high control−mean of low control)] where by the low control is DMSO without stimulation and high control is DMSO with stimulation. The IC50 is defined as the concentration of test compound which produces 50% inhibition and was quantified using the 4 parameter logistic equation to fit the data.

Chain of TNFα (P01375 77-233): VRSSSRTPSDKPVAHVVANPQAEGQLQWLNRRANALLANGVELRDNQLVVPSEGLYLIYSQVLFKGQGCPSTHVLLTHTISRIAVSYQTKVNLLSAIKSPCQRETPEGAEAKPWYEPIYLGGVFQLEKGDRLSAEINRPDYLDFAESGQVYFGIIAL

| SMILES | IC50 [nM] |
| --- | --- |
| COc1ccc(-c2ccc3nc4c(n3c2)N(c2cc(C(F)(F)F)ccc2C)CCC4)cn1 [Example 11, 8-(6-Methoxypyridin-3-yl)-1-(2-methyl-5-(trifluoromethyl)phenyl)-1,2,3,4-tetrahydroimidazo[1,2-a:5,4-b′]dipyridine] | 1000 to 10000 |
| CC(C)(O)c1ccc(-c2ccc3nc4c(n3c2)N(c2ccccc2OC(F)F)CCC4)cc1 [Example 35, 2-(4-(1-(2-(Difluoromethoxy)phenyl)-1,2,3,4-tetrahydroimidazo[1,2-a:5,4-b′]dipyridin-8-yl)phenyl)propan-2-ol] | < 1000 |
| Cc1ccc(C)c(N2CCCc3nc4ccc(-c5cnc(C(C)(C)O)nc5)cn4c32)c1 [Example 18, 2-(5-(1-(2,5-Dimethylphenyl)-1,2,3,4-tetrahydroimidazo[1,2-a:5,4-b′]dipyridin-8-yl)pyrimidin-2-yl)propan-2-ol] | < 1000 |
| COc1ccc(-c2ccc3nc4c(n3c2)N(c2ccc(C)cc2C)CCC4)cn1 [Example 30, 1-(2,4-Dimethylphenyl)-8-(6-methoxypyridin-3-yl)-1,2,3,4-tetrahydroimidazo[1,2-a:5,4-b′]dipyridine] | 1000 to 10000 |

Results, then the compound that gave them:

| IC50 [nM] | SMILES |
| --- | --- |
| < 1000 | COc1ccc(-c2ccc3nc4c(n3c2)N(c2cc(C)ccc2OC(F)F)CCC4)cn1 [Example 20, 1-(2-(Difluoromethoxy)-5-methylphenyl)-8-(6-methoxypyridin-3-yl)-1,2,3,4-tetrahydroimidazo[1,2-a:5,4-b′]dipyridine] |
| < 1000 | COc1ccc(-c2ccc3nc4c(n3c2)N(c2ccccc2C)CCC4)cn1 [Example 9, 8-(6-Methoxypyridin-3-yl)-1-(o-tolyl)-1,2,3,4-tetrahydroimidazo[1,2-a:5,4-b′]dipyridine] |
| < 1000 | CC(C)(O)c1ncc(-c2cn3c4c(nc3cc2Cl)CCCN4c2ccccc2)cn1 [Example 21, 2-(5-(7-Chloro-1-phenyl-1,2,3,4-tetrahydroimidazo[1,2-a:5,4-b′]dipyridin-8-yl)pyrimidin-2-yl)propan-2-ol] |
